Source: patent US11186534B2, “Derivatives of sulindac can protect normal cells against oxidative damage” (University of South Alabama, priority 2017, dated 2021)

Tests used:
[1] = system: Retinal pigmented epithelium cells (ARPE-19); experiment: Cell viability assay: protection of RPE cells against oxidative damage from TBHP; format: cell-based
Protocol: Cultured cells and reagents: Retinal pigmented epithelium cells (ARPE-19) were obtained from American Type Culture Collection (ATCC, Manassas, Va.) and cultured at 37° C. in 5% CO2. All chemicals were purchased from Sigma unless specified.
Cell viability assay: Cells were cultured and assayed for cell viability essentially as described previously (14). ARPE-19 cells were plated at 10,000 cells per well in a 96-well plate. The cells were grown for 18-20 hours, the medium discarded in aseptic conditions and replaced with fresh culture medium containing the indicated drug concentration. The plates were incubated for 24 hours at 37° C. in a 5% CO2 incubator in the presence of sulindac or Compound 9. To examine the treatment effects on oxidative damage to RPE cells, cells were washed and incubated in media without serum with various concentrations of tert-butyl hydroperoxide (TBHP) for an additional 24h. The culture medium was then discarded and the cells were thoroughly rinsed in PBS. Cell viability was determined by using the Cell Titer 96 Aqueous One Cell Proliferation Assay (Promega) according to the manufacturer's instructions. The assay utilizes a tetrazolium compound that is converted into a water-soluble formazan by the action of cellular NADH oxidase activity in metabolically active cells. The formazan was quantified by measuring the absorbance at 490 nm using a colorimetric microtiter plate reader (SpectraMax Plus; Molecular Devices).
In the present studies, a series of compounds were identified as having the ability to protect RPE cells against oxidative damage using tert-butyl hydroperoxide (TBHP), an organic peroxide, as an oxidizing agent (10).

[2] = target: T1, human recombinant COX-2 (Homo sapiens, UniProt P35354); experiment: COX Fluorescent Inhibitor Screening assay, COX-2; format: biochemical; conditions: FIG. 4B
T1 construct: purchased Cayman Chemical 700100
T1 sequence (P35354 18-604): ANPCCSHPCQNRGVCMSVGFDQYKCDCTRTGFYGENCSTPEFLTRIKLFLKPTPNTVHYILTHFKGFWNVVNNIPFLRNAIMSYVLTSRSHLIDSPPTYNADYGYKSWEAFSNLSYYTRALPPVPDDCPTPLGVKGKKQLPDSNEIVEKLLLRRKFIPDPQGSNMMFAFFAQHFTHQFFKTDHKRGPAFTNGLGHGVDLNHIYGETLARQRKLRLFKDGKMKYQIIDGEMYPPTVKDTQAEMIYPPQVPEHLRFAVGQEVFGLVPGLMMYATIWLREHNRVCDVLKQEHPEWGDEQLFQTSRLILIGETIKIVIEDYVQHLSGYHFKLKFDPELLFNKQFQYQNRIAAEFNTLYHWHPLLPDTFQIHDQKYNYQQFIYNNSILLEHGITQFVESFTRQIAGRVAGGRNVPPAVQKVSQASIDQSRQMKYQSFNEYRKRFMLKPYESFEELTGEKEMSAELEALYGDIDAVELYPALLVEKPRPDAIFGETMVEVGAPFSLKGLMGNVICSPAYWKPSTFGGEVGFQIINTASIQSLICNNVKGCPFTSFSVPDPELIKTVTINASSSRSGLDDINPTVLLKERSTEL
Protocol: Compounds were assayed for cyclooxygenase (COX) inhibition using the COX Fluorescent Inhibitor Screening Kit from Cayman Chemical (Item #: 700100). Briefly, COX enzyme (ovine COX-1 or human recombinant COX-2) diluted in 1× reaction buffer is incubated with the compound or DMSO control for 20 min at 25° C. in a half-area 96-well black microplate. Background wells are also included that contained no enzyme. Added to each well were heme B, to ensure enzyme activity, and 10-acetyl-3,7-dihydroxyphenoxazine (ADHP) assay reagent. After the 20 min incubation, arachidonic acid (AA) substrate was added to all wells. As shown by the schematic diagram below, active COX enzyme converts AA to hydroperoxy endoperoxide (PGG2). Catalyzed by the secondary peroxidase activity of COX, ADHP can react with PGG2 to form a highly fluorescent compound, resorufin. Fluorescence was measured with a […] excitation wavelength and a 585-595 nm emission wavelength. Decreased fluorescence relative to the DMSO control indicates COX inhibition. See, also, Piazza G A, Keeton A B, Tinsley H N, Gary B D, Whitt J D, Mathew B, Thaiparambil J, Coward L, Gorman, G, Li Y, Sani B, Hobrath J V, Maxuitenko Y Y and Reynolds R C. […] Cancer Prevention Research 2009; 2: 572-580.

Q: Which “Cyto-protective activity*” value ([1]; RPE cells, TBHP as oxidizing agent, relative to Sulindac) does the source give for `COc1cc2c(cc1OC)/C(=C\c1cc(OC)c(OC)c(OC)c1)C(C)=C2CC(=O)O` [Compound 9, (Z)-2-(5,6-dimethoxy-2-methyl-1-(3,4,5-trimethoxybenzylidene)-1H-inden-3-yl)acetic acid] here?
A: Its value is “active”.

Q: What about the “Protective effect on RPE cells in combination with PKG inhibitor Rp-Br-8-PET-cGMPS” value ([1]; Rp-Br-8-PET-cGMPS 500 μM, 24 h, FIG. 6C) of the same molecule?
A: The value was “reduces the protection”.

Q: And the “Lowest concentration found effective in protecting RPE cells” value ([1]; TBHP, FIG. 3)?
A: Its value is 10 µM.

Q: And the “Protective effect on RPE cells in combination with PKC inhibitor chelerythrine” value ([1]; chelerythrine 2 μM, 24 h, FIG. 6B)?
A: The value was “significantly reduces the protective effect”.

Q: What about the “TBHP concentration up to which complete protection of RPE cells was provided” value ([1]; compound at 25 μM, FIG. 2) of the same molecule?
A: The value was no more than 400 µM.

Q: What about the “Times more active than sulindac in protecting RPE cells and other cells from oxidative damage” value ([1]; on a molar basis, stated as 'may be') of the same molecule?
A: The value was “at least 10 times”.

Q: What about the “Fold lower effective concentration relative to sulindac (RPE cell protection)” value ([1]; sulindac 200 μM, Compound 10 at 25 μM, Compound 9 at 10 μM) of the same molecule?
A: The value was 20 ×.

Q: And the “Protective effect on RPE cells in combination with ROS scavenger tiron” value ([1]; tiron 1 mM, 24 h, FIG. 6A)?
A: The value was “attenuates the protective effect”.

Q: And the “COX-2 inhibition: fold less potent than celecoxib” value [2]?
A: Its value is “approximately 1000 ×”.
